US20040014694A1, “Use of docetaxel/doxorubicin/cyclophosphamide in adjuvant therapy” (priority 2002, published 2004)

Assays:
[1] = In-house proprietary studies of docetaxel alone, overall response rate; assay type: in vivo; settings: first line therapy
Method: Docetaxel alone, in several in-house proprietary studies, gave overall response rates of 40 to 43% (in second line therapy at a dose of 100 mg/m^2), 48% (in first line therapy at a dose of 75 mg/m^2) and 61% (in first line therapy at a dose of 100 mg/m^2).

[2] = tested on: metastatic breast cancer (MBC); settings: MBC progressing despite previous anthracycline containing chemotherapy; cited from earlier work
advanced breast cancer = advanced breast cancer after anthracycline failure; cited from earlier work

SMILES: CC(=O)O[C@@]12CO[C@@H]1C[C@H](O)[C@@]1(C)C(=O)[C@H](O)C3=C(C)[C@@H](OC(=O)[C@H](O)[C@@H](NC(=O)OC(C)(C)C)c4ccccc4)C[C@@](O)([C@@H](OC(=O)c4ccccc4)[C@H]21)C3(C)C [Docetaxel, docetaxel]
- overall response rate ([1]; dose 75 mg/m^2): 48%
- overall response rate ([1]; dose 100 mg/m^2): 61%
- response, median time to progression (TTP), and survival compared with MV [2]: significantly superior to MV
- response rate and TTP compared with MF (advanced breast cancer): superior to sequential methotrexate and 5-fluoruracil
